Broadly, the chromatographic logP is lipophilicity estimated from chromatographic retention.

Read-outs that look alike come from different tables or passages of the source.

The nature of the data set: logP determination by retention times (calibration with alkan-2-ones).
Setting [1] is: logP, * HPLC reversed-phase C18, 40° C., mobile phase 0.1% aqueous formic acid and acetonitrile, linear gradient 10% to 95% acetonitrile.
Setting [2] is: logP, ** HPLC reversed-phase C18, 43° C., mobile phase 0.1% aqueous phosphoric acid and acetonitrile, linear gradient 10% to 95% acetonitrile.

Consider `COc1ccc(OC)c(Nc2nccc(-c3sc(C)nc3C)n2)c1` [Example 391, N-(2,5-dimethoxyphenyl)-4-(2,4-dimethyl-1,3-thiazol-5-yl)pyrimidine-2-amine], for which the chromatographic logP is 3.03.

Take `Cc1nc(C(C)C)sc1-c1ccnc(Nc2ccc(F)c(F)c2)n1` [Example 401, N-(3,4-difluorophenyl)-4-(2-isopropyl-4-methyl-1,3-thiazol-5-yl)pyrimidine-2-amine]: the chromatographic logP was 3.95.

`COc1ccc(Nc2nccc(-c3sc(C)nc3C)n2)cc1OC` [Example 403, N-(3,4-dimethoxyphenyl)-4-(2,4-dimethyl-1,3-thiazol-5-yl)pyrimidine-2-amine]: the chromatographic logP was determined as 2.16.

In turn, `COCc1nc(C)c(-c2ccnc(Nc3ccc(OC)c(OC)c3)n2)s1` [Example 404, N-(3,4-dimethoxyphenyl)-4-[2-(methoxymethyl)-4-methyl-1,3-thiazol-5-yl]pyrimidine-2-amine] registered a chromatographic logP of 2.23. This chromatographic logP and that of the molecule before are within 0.2 log units of each other.

Turning to `COc1ccc(Nc2nccc(-c3sc(SC)nc3C)n2)cc1OC` [Example 405, N-(3,4-dimethoxyphenyl)-4-[4-methyl-2-(methylthio)-1,3-thiazol-5-yl]pyrimidine-2-amine], the chromatographic logP is 2.78.

Regarding `COc1cc(Nc2nccc(-c3sc(C)nc3C)n2)cc(OC)c1` [Example 406, N-(3,5-dimethoxyphenyl)-4-(2,4-dimethyl-1,3-thiazol-5-yl)pyrimidine-2-amine], the chromatographic logP was determined as 2.64.

Under setting [1], `COc1cc(Nc2nccc(-c3sc(SC)nc3C)n2)cc(OC)c1` [Example 407, N-(3,5-dimethoxyphenyl)-4-[4-methyl-2-(methylthio)-1,3-thiazol-5-yl]pyrimidine-2-amine] registered a chromatographic logP of 3.39.

Under setting [1], `CC(=O)NCc1cccc(Nc2nccc(-c3sc(C4CC4)nc3C)n2)c1` [Example 414, N-(3-{[4-(2-cyclopropyl-4-methyl-1,3-thiazol-5-yl)pyrimidin-2-yl]amino}benzyl)acetamide] registered a chromatographic logP of 1.96.

For `CCc1nc(C)c(-c2ccnc(Nc3cccc(NC(C)=O)c3)n2)s1` [Example 415, N-(3-{[4-(2-ethyl-4-methyl-1,3-thiazol-5-yl)pyrimidin-2-yl]amino}phenyl)acetamide], the chromatographic logP under setting [1] turned out to be 2.05.

Molecule `COc1ccc(Nc2nccc(-c3sc(C)nc3C)n2)cc1Cl` [Example 416, N-(3-chloro-4-methoxyphenyl)-4-(2,4-dimethyl-1,3-thiazol-5-yl)pyrimidine-2-amine] returned a chromatographic logP under setting [1] of 2.88.

For the molecule `COCc1nc(C)c(-c2ccnc(Nc3ccc(OC)c(Cl)c3)n2)s1` [Example 419, N-(3-chloro-4-methoxyphenyl)-4-[2-(methoxymethyl)-4-methyl-1,3-thiazol-5-yl]pyrimidine-2-amine], the chromatographic logP under setting [1] was determined as 2.91.

The molecule `Cc1nc(C)c(-c2ccnc(Nc3cccc(Cl)c3)n2)s1` [Example 421, N-(3-chlorophenyl)-4-(2,4-dimethyl-1,3-thiazol-5-yl)pyrimidine-2-amine] came in with a chromatographic logP under setting [2] of 3.11.

For the molecule `Cc1nc(C2CC2)sc1-c1ccnc(Nc2cccc(Cl)c2)n1` [Example 422, N-(3-chlorophenyl)-4-(2-cyclopropyl-4-methyl-1,3-thiazol-5-yl)pyrimidine-2-amine], the chromatographic logP under setting [1] was 3.94.

In turn, `CCc1nc(C)c(-c2ccnc(Nc3cccc(Cl)c3)n2)s1` [Example 424, N-(3-chlorophenyl)-4-(2-ethyl-4-methyl-1,3-thiazol-5-yl)pyrimidine-2-amine] showed a chromatographic logP under setting [1] of 3.72.

Take `Cc1nc(C(C)C)sc1-c1ccnc(Nc2cccc(Cl)c2)n1` [Example 425, N-(3-chlorophenyl)-4-(2-isopropyl-4-methyl-1,3-thiazol-5-yl)pyrimidine-2-amine]: the chromatographic logP under setting [1] is 4.25.

In turn, `COCc1nc(C)c(-c2ccnc(Nc3cccc(Cl)c3)n2)s1` [Example 432, N-(3-chlorophenyl)-4-[2-(methoxymethyl)-4-methyl-1,3-thiazol-5-yl]pyrimidine-2-amine] gave a chromatographic logP under setting [1] of 3.24.

`Cc1nc(C(F)(F)F)c(-c2ccnc(Nc3cccc(Cl)c3)n2)s1` [Example 433, N-(3-chlorophenyl)-4-[2-methyl-4-(trifluoromethyl)-1,3-thiazol-5-yl]pyrimidine-2-amine] gave a chromatographic logP under setting [1] of 4.03.

Turning to `CNc1nc(C)c(-c2ccnc(Nc3cccc(Cl)c3)n2)s1` [Example 434, N-(3-chlorophenyl)-4-[4-methyl-2-(methylamine)-1,3-thiazol-5-yl]pyrimidine-2-amine], the logP (* HPLC reversed-phase C18, 40° C., mobile phase 0.1% aqueous formic acid and acetonitrile, linear gradient 10% to 95% acetonitrile) is on record as 2.03*.

`CSc1nc(C)c(-c2ccnc(Nc3cccc(Cl)c3)n2)s1` [Example 435, N-(3-chlorophenyl)-4-[4-methyl-2-(methylthio)-1,3-thiazol-5-yl]pyrimidine-2-amine] yielded a chromatographic logP under setting [1] of 4.08.

As for `COCC(C)Nc1nc(C)c(-c2ccnc(Nc3cccc(Cl)c3)n2)s1` (centres unmarked) [Example 437, N-(3-chlorophenyl)-4-{2-[(2-methoxy-1-methylethyl)amino]-4-methyl-1,3-thiazol-5-yl}pyrimidine-2-amine], the chromatographic logP under setting [1] is 2.47.

As for `Cc1nc(NCC2CCCO2)sc1-c1ccnc(Nc2cccc(Cl)c2)n1` (centres unmarked) [Example 443, N-(3-chlorophenyl)-4-{4-methyl-2-[(tetrahydrofuran-2-ylmethyl)amino]-1,3-thiazol-5-yl}pyrimidine-2-amine], the chromatographic logP under setting [1] worked out at 2.36.

With `COc1cccc(Nc2nccc(-c3sc(SC)nc3C)n2)c1` [Example 449, N-(3-methoxyphenyl)-4-[4-methyl-2-(methylthio)-1,3-thiazol-5-yl]pyrimidine-2-amine], the chromatographic logP under setting [1] stood at 3.33.

Take `COc1cccc(Nc2nccc(-c3sc(NCC4CCCO4)nc3C)n2)c1` (centres unmarked) [Example 451, N-(3-methoxyphenyl)-4-{4-methyl-2-[(tetrahydrofuran-2-ylmethyl)amino]-1,3-thiazol-5-yl}pyrimidine-2-amine]: the chromatographic logP under setting [1] turned out to be 1.94.

Turning to `CC(=O)Nc1ccc(Nc2nccc(-c3sc(C)nc3C)n2)cc1` [Example 458, N-(4-{[4-(2,4-dimethyl-1,3-thiazol-5-yl)pyrimidin-2-yl]amino}phenyl)acetamide], the chromatographic logP under setting [1] turned out to be 1.62.

`CC(=O)Nc1ccc(Nc2nccc(-c3sc(C4CC4)nc3C)n2)cc1` [Example 459, N-(4-{[4-(2-cyclopropyl-4-methyl-1,3-thiazol-5-yl)pyrimidin-2-yl]amino}phenyl)acetamide] came in with a chromatographic logP under setting [1] of 2.

The molecule `Cc1nc(C)c(-c2ccnc(Nc3ccc(Cl)cc3)n2)s1` [Example 462, N-(4-chlorophenyl)-4-(2,4-dimethyl-1,3-thiazol-5-yl)pyrimidine-2-amine] yielded a chromatographic logP under setting [2] of 3.09.

Consider `CCc1nc(C)c(-c2ccnc(Nc3ccc(Cl)cc3)n2)s1` [Example 463, N-(4-chlorophenyl)-4-(2-ethyl-4-methyl-1,3-thiazol-5-yl)pyrimidine-2-amine], for which the chromatographic logP under setting [1] came to 3.72.

The molecule `Cc1nc(C(C)C)sc1-c1ccnc(Nc2ccc(Cl)cc2)n1` [Example 464, N-(4-chlorophenyl)-4-(2-isopropyl-4-methyl-1,3-thiazol-5-yl)pyrimidine-2-amine] had a chromatographic logP under setting [1] of 4.25.

`COCc1nc(C)c(-c2ccnc(Nc3ccc(Cl)cc3)n2)s1` [Example 465, N-(4-chlorophenyl)-4-[2-(methoxymethyl)-4-methyl-1,3-thiazol-5-yl]pyrimidine-2-amine] showed a chromatographic logP under setting [1] of 3.29.

The record behind these values is US20090030024A1, “THIAZOLES AS FUNGICIDES” (priority 2005, published 2009).
